Patent US20240343699A1, “DERIVATIVES OF SUBSTITUTED MORPHOLINES AND USES THEREOF” (Supernus Pharmaceuticals, Inc., priority 2023, published 2024)

Legend:
[1] = Stability in rat whole blood, red blood cells and plasma; type: in vitro ADME; conditions: 0.5 mM, 0-120 min
Method: Stability of Test Articles at Different pH Values. 10 mM stock solutions of COMPOUND A were prepared in DMSO. From this stock solution, a single concentration in a 10 μL aliquot was added to three fluid matrices: SGF at pH 2.0 (gastric), SIF at pH 6.0 (upper intestine), and PBS at 7.4 (systemic). The final volume was 1 mL (0.1 mM). The preparations were then incubated at 37° C. and samples were collected at 0, 15, 30, 60, and 120 min for analysis of parent material by LC/MS/MS. The collected sample was quenched in acetonitrile/0.1% formic acid mixture. Red Blood Cell (RBC): Human and rat blood were centrifuged to separate out red blood cells at […] for 15 min. The upper plasma level was aspirated with a micropipette and placed in a bleach solution for disposal. The RBC pellet was resuspended in sterile isotonic saline. The pellet was gently resuspended by rocking the tube. […]
(§1) Stability in Human and Rat Red Blood cells and Hemolysis. […] After centrifugation, 70 μL of supernatant (without disturbing the pellet) was transferred to a clean and clear polystyrene flat bottomed 96-well plate and the absorbance of the sample at a single wavelength was measured using a Bio Tech Synergy Hl Plate Reader at a wavelength of 410 nm. […] Stability was measured by measuring loss of parent compound using LC/MS/MS.

rat red blood cells = experiment: Hemolysis in rat blood; type: cell-based
Method: Stability of Test Articles at Different pH Values. 10 mM stock solutions of COMPOUND A were prepared in DMSO. From this stock solution, a single concentration in a 10 μL aliquot was added to three fluid matrices: SGF at pH 2.0 (gastric), SIF at pH 6.0 (upper intestine), and PBS at 7.4 (systemic). The final volume was 1 mL (0.1 mM). The preparations were then incubated at 37° C. and samples were collected at 0, 15, 30, 60, and 120 min for analysis of parent material by LC/MS/MS. The collected sample was quenched in acetonitrile/0.1% formic acid mixture. Red Blood Cell (RBC): Human and rat blood were centrifuged to separate out red blood cells at […] for 15 min. The upper plasma level was aspirated with a micropipette and placed in a bleach solution for disposal. The RBC pellet was resuspended in sterile isotonic saline. The pellet was gently resuspended by rocking the tube. The sample was then centrifuged again to collect the RBC pellet and then resuspended and washed one more time following the same procedure. A total of three was done. Following the last wash and centrifugation, the RBCs were resuspended with PBS; and mixed by inversion. Aliquots of the resuspended and washed RBCs were then placed into 4 reaction tubes. These tubes were centrifuged to collect the RBCs. The fluid level was marked on each tube, then the supernatant was aspirated off and the cells resuspended with room temperature PBS pH 7.4 to the original mark. An aliquot of the RBC suspension was added to four sterile tubes containing PBS pH 7.4 at room temperature.
as §1

recognition memory = experiment: Spontaneous novel object recognition (NOR), 48 hr retention interval; type: in vivo, male Wistar rats; conditions: 48 hr delay
cognitive flexibility = experiment: Operant set-shifting test against PCP; type: in vivo, male Wistar rats
Method: This assay serves as a model of impaired executive function associated with neuropsychiatric disorders like schizophrenia. The aim of this study was to evaluate COMPOUND C to reverse deficits observed with PCP on cognitive flexibility using the operant set-shifting test in the rat.
Substances & Formulation.
Doses were prepared by separate weighing (W/V). COMPOUND C formulations were prepared fresh on each dosing day and dosing was completed within 8 hours of formulation. Phencyclidine (PCP) hydrochloride, white powder, was dissolved in physiological saline by magnetic stirring, fresh each day of dosing.
Test System. 78 male Wistar rats were supplied for this study. • 72 rats, 8-9 weeks old, weighing 218-299 g at the beginning of the visual discrimination were submitted to the entire behavioral testing and assigned to match groups based on their performance during the second visual discrimination session. • 6 spare rats were submitted to lever pressing, side bias and visual discrimination but were discarded for the testing period (set-shift and reversal)
The experimental protocol which detects effects on behavioral flexibility follows that described by Floresco et al. (Behav. Brain Res., 190, 85-96 (2008)).
Apparatus. The apparatus consists of standard Med Associates ENV-008 Skinner boxes (30×25×30 cm) fitted with a house light, two retractable levers and a food pellet dispenser. The levers are located on either side of the food receptacle connected to the pellet dispenser. A light emitting diode stimulus light is positioned centrally above each lever and served as a stimulus for visual-cue discrimination learning.
Acquisition of lever-pressing (training). The aim of this phase was to train animals to lever-press to receive a food pellet reward.
Side bias. On the last day of training, the side bias for the rat was determined. The session was similar to the lever pressing session except that both levers were inserted into the chamber together (i.e. 90 levers presentations every 20 seconds). Again, the stimulus lights above each of the levers were not illuminated during this training session. On the first levers presentation, a food pellet was delivered after responding on either lever. Upon subsequent insertion of the levers, food was delivered only if the rat responded on the lever opposite to the one chosen initially. If the rat chose the same lever to the initial choice, no food was delivered. This continued until the rat chose the lever opposite to the one chosen initially. After choosing both levers, a new trial commenced. Thus, one trial for the side bias procedure consisted of responded on both levers. The sessions terminated after 90 levers presentations or after completion of 21 trials.
Visual-cue discrimination learning. After determining the side bias, animals were submitted to visual-cue discrimination learning.
A session began with both levers retracted and the chamber in darkness (the inter-trial state). Every 20 seconds, a trial began with illumination of one of the stimulus lights above one of the levers. 3 seconds later, the house light was illuminated, and both levers were inserted into the chamber. […] After food delivery, the house light remained on for another 4 seconds, after which the chamber returned to the inter-trial state. If the rat responded on the other lever (incorrect response), both levers retracted immediately without food delivery and the chamber reverted to the inter-trial state.

Compound	stability in rat red blood cells, plasma and whole blood [1]	hemolysis (% RBC lysis) (rat red blood cells; rat blood, 25, 50, 100 μM, 1 hr)	EC50 (% RBC lysis) (rat red blood cells; rat blood, 60 min exposure)	preference for the novel object (exploration times) (recognition memory; COMPOUND A 15 mg/kg p.o.)	preference for the novel object (exploration times) (recognition memory; COMPOUND A 30, 60, and 90 mg/kg p.o.)	d2 ratios vs vehicle-control (recognition memory; COMPOUND A 60 and 90 mg/kg p.o.)	number of omissions, post-hoc Dunnett (cognitive flexibility; COMPOUND C 120 mg/kg p.o. + PCP, first set-shift session)	number of perseverative errors vs PCP controls (cognitive flexibility; COMPOUND C 40, 80, 120 and 160 mg/kg p.o. + PCP)	number of trials to reach the criterion vs PCP controls (cognitive flexibility; COMPOUND C 40, 80, 120 and 160 mg/kg p.o. + PCP, first set-shift and first reversal sessions)	omissions vs PCP-treated rats (cognitive flexibility; COMPOUND C 40-160 mg/kg p.o. + PCP)
CCOc1ccccc1OC[C@@H]1CN(C(=O)OC(C)OC(=O)[C@@H](N)C(C)C)CCO1 (stereo partly shown) [COMPOUND A]	time-dependent decrease in the amount of parent compound present	no detectable hemolysis	outside the concentration range tested	non-significant trend toward a preference for the novel object	significant (p<0.05) preference for the novel object	significant difference (p<0.05) from the vehicle-control response				
CCOc1ccccc1OC[C@@H]1CN(C(=O)OC(OC(=O)[C@H](N)C(C)C)C(C)C)CCO1 (stereo partly shown) [COMPOUND C]							significant effects at the dose of 120 mg/kg	did not significantly affect	did not significantly affect the number of trials to reach the criterion	increased omissions
